Each block holds one molecule with its values, some of them ahead of it. Active and inactive are the calls of the source.
Key:
[1] = biological target: T1, Orexin/Hypocretin receptor type 1 (Homo sapiens, UniProt O43613); assay: Homogeneous Time Resolved Fluorescence (HTRF)-based cell-based high throughput dose response assay for antagonists of the orexin 1 receptor (OX1R; HCRTR1). [Related pubchem assays (depositor defined):AID434989, AID435008, AID463079, AID485270, AID492963, AID492964, AID492965, AID493232, AID504717, AID504718]; type: functional
T1 sequence (O43613 whole entry): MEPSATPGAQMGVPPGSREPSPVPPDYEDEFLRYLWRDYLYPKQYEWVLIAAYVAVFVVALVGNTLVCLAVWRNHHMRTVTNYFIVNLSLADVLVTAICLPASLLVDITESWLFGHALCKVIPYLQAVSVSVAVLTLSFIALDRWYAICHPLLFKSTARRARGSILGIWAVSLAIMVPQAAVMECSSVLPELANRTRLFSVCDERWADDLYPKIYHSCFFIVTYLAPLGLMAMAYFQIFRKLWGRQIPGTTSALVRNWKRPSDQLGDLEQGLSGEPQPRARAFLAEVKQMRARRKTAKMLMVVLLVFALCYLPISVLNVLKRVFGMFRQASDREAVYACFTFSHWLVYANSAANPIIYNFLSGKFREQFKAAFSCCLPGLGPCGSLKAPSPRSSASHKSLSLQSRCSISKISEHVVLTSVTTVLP

CHO-K1 = assay: (§1) Counterscreen for antagonists of the orexin 1 receptor (OX1R; HCRTR1): Homogeneous time resolved fluorescence (HTRF)-based cell-based dose response assay to identify antagonists of the parental CHO-K1 cell line. [Related pubchem assays (depositor defined):AID434989, AID435008, AID463079, AID485270, AID492963, AID492964, AID492965, AID493232, AID504699, AID504701]; type: functional; conditions: Cricetulus griseus
[2] = as §1, with “Fluorescence-based” for “Homogeneous time resolved fluorescence (HTRF)-based”, “cell-based high throughput” for “cell-based”, “CHO” for “CHO-K1”; type: functional
Orexin receptor type 2 [3] = biological target: T2, Orexin receptor type 2 (Homo sapiens, UniProt O43614); assay: Counterscreen assay for antagonists of the orexin 1 receptor (OX1R; HCRTR1): Fluorescence-based cell-based dose response assay for antagonists of the orexin 2 receptor (OX2R; HCRTR2), run by assay provider.; type: functional
T2 sequence (O43614 whole entry): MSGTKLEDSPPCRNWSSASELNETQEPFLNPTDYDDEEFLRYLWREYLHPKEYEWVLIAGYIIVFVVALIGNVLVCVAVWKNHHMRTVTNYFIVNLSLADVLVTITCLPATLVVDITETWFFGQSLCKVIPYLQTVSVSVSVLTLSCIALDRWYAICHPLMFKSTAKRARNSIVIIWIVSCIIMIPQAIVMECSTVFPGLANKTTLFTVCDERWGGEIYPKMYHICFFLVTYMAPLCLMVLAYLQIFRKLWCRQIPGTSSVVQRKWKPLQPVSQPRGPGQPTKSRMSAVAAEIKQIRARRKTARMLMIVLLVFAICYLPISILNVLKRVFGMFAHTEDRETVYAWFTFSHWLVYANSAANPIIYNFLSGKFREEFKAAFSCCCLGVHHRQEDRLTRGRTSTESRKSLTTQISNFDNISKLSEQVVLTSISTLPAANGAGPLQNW

Orexin receptor type 2 [4] = biological target: T2, Orexin receptor type 2; assay: Counterscreen assay for antagonists of the orexin 1 receptor (OX1R; HCRTR1): Homogeneous Time Resolved Fluorescence (HTRF)-based cell-based dose response assay for antagonists of the orexin 2 receptor (OX2R; HCRTR2), run by assay provider.; type: functional
[5] = biological target: T1, Orexin/Hypocretin receptor type 1; assay: Fluorescence-based cell-based high throughput dose response assay for antagonists of the orexin 1 receptor (OX1R; HCRTR1). [Related pubchem assays (depositor defined):AID434989, AID435008, AID463079, AID485270, AID492963, AID492964, AID492965, AID493232, AID504717, AID504718]; type: functional
[6] = biological target: T3, DNA dC->dU-editing enzyme APOBEC-3A (Homo sapiens, UniProt P31941); assay: SAR analysis of small molecule inhibitors of APOBEC3A DNA Deaminase via a fluorescence-based single-stranded DNA deaminase assay - Set 2.; type: functional; conditions: read-out: IC50_Mean
T3 sequence (P31941 whole entry): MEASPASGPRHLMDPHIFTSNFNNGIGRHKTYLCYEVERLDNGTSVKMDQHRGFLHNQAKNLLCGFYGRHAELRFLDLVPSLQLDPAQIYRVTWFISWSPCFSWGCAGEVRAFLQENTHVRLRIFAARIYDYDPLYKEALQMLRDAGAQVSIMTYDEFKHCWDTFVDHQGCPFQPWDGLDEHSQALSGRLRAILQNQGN

[7] = biological target: T4, DNA dC->dU-editing enzyme APOBEC-3G (Homo sapiens, UniProt Q9HC16); assay: SAR analysis of small molecule inhibitors of APOBEC3G DNA Deaminase via a fluorescence-based single-stranded DNA deaminase assay - Set 2.; type: functional; conditions: read-out: IC50_Mean
T4 sequence (Q9HC16 whole entry): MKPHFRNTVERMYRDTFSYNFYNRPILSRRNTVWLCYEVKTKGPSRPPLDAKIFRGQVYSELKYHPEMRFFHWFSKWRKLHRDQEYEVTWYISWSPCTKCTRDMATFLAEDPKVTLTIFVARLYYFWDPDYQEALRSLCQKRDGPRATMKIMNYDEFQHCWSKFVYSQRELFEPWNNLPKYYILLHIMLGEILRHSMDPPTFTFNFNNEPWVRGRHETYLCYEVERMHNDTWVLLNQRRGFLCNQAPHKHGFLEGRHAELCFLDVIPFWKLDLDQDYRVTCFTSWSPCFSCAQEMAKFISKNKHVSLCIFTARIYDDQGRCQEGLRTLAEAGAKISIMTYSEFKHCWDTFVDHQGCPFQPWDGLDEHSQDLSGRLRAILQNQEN

[8] = biological target: T4, DNA dC->dU-editing enzyme APOBEC-3G; assay: APOBEC3G deaminase inhibitors, SAR follow-up, biochemical, fluorescence, single-stranded DNA substrate (AID 602136); type: functional; conditions: read-out: IC50_Mean
[9] = biological target: T3, DNA dC->dU-editing enzyme APOBEC-3A; assay: SAR analysis of small molecule inhibitors of APOBEC3A DNA Deaminase via a fluorescence-based single-stranded DNA deaminase assay.; type: functional; conditions: read-out: IC50_Mean
[10] = biological target: Voltage-gated N-type calcium channel alpha-1B subunit/Amyloid beta A4 precursor protein-binding family A member 1 (Homo sapiens, UniProt Q00975+Q02410); type: protein assay
[11] = biological target: T5, Alkaline phosphatase, tissue-nonspecific isozyme (Homo sapiens, UniProt P05186)
T5 sequence (P05186 whole entry): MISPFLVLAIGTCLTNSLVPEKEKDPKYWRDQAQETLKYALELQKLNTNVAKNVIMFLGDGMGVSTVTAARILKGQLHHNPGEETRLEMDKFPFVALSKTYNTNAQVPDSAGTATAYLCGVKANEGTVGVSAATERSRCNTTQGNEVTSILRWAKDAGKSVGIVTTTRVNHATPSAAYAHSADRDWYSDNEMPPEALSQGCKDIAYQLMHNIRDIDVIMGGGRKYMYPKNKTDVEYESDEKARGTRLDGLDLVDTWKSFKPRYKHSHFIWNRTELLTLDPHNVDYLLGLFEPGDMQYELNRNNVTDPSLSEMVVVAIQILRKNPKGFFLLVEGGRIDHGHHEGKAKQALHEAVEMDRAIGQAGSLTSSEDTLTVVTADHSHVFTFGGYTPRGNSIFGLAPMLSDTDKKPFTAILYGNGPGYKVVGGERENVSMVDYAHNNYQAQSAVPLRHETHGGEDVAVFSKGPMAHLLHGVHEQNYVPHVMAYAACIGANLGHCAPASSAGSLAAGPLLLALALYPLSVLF

HEK293 [12] = assay: HEK cell cytotoxicity by LDH release, dose response, cytotoxicity control for IDE activator project, fluorescence, HEK cells (AID 588440); type: functional, cell-based; conditions: Homo sapiens;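 note: cytotoxicity by LDH release measuring loss of membrane integrity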
HEK293 [13] = assay: optical interference in Abeta FP readout, dose response, artefact control for IDE activator project, biochemical, fluorescence polarization (AID 588442); type: functional, cell-based; conditions: Homo sapiens
[14] = HEp-2 cell cytotoxicity, dose response, cytotoxicity control for RSV inhibitor project, HTS (AID 2410); type: functional; conditions: human respiratory syncytial virus
Insulin-degrading enzyme [15] = biological target: T6, Insulin-degrading enzyme (Homo sapiens, UniProt P14735); assay: activators of recombinant IDE enzyme, dose response, counter-screen for IDE activator project, biochemical, fluorescence polarization (AID 588681)
T6 sequence (P14735 whole entry): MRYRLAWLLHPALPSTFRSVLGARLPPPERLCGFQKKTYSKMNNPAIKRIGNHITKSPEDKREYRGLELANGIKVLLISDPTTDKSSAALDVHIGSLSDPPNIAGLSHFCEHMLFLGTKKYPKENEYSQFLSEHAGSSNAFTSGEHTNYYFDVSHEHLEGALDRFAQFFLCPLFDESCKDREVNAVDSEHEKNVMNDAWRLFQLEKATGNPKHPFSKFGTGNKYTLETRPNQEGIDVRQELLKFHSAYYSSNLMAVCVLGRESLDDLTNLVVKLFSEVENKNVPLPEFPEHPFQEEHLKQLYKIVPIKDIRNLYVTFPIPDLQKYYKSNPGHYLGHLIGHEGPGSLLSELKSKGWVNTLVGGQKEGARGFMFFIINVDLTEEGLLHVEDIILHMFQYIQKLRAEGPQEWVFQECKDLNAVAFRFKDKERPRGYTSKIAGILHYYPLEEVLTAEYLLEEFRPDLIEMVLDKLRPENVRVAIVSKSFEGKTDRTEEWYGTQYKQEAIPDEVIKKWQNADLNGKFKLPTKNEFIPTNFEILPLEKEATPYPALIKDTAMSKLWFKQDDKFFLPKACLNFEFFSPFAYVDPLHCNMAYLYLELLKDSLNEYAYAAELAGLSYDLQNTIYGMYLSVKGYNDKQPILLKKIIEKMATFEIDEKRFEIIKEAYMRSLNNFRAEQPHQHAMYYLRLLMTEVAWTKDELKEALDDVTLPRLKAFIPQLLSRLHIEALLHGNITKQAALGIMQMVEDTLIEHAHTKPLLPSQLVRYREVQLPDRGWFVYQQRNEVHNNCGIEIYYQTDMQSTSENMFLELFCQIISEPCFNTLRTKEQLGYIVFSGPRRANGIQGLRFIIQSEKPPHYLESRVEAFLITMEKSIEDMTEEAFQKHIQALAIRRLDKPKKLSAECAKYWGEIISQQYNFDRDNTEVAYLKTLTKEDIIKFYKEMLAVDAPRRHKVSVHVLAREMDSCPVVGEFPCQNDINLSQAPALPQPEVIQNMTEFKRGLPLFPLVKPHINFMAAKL

Insulin-degrading enzyme [16] = biological target: T6, Insulin-degrading enzyme; assay: activators of endogenous IDE in HEK cells, dose response, cell-based, fluorescence polarization (AID 588439); type: functional
[17] = biological target: Mitochondrial peptide methionine sulfoxide reductase (Bos taurus, UniProt P54149); type: functional;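 note: absorbance read-out, biochemical high-throughput dose-response screen for MsrA inhibitors, confirmatory; recombinant bovine MsrA coupled to E. coli TrxB with NADPH and selenocystamine; potency is for inhibitors of MsrA activity on DMSO substrate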
Sequence of Mitochondrial peptide methionine sulfoxide reductase (P54149 whole entry): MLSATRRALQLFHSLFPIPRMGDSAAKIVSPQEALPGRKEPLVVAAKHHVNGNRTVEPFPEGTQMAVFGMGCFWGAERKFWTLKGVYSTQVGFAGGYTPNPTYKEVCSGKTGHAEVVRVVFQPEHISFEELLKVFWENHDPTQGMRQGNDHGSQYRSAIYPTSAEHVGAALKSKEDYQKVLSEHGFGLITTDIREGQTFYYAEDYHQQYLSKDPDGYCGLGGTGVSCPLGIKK

[18] = biological target: T7, Apoptotic protease-activating factor 1 (Homo sapiens, UniProt O14727); assay: SAR analysis of small molecule Activators of Apaf-1 in a Fluorescent assay.; type: functional; conditions: read-out: EC50_Mean;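 note: caspase-3 cleavage of fluorogenic Rh110 DEVD substrate downstream of apoptosome activation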
T7 sequence (O14727 whole entry): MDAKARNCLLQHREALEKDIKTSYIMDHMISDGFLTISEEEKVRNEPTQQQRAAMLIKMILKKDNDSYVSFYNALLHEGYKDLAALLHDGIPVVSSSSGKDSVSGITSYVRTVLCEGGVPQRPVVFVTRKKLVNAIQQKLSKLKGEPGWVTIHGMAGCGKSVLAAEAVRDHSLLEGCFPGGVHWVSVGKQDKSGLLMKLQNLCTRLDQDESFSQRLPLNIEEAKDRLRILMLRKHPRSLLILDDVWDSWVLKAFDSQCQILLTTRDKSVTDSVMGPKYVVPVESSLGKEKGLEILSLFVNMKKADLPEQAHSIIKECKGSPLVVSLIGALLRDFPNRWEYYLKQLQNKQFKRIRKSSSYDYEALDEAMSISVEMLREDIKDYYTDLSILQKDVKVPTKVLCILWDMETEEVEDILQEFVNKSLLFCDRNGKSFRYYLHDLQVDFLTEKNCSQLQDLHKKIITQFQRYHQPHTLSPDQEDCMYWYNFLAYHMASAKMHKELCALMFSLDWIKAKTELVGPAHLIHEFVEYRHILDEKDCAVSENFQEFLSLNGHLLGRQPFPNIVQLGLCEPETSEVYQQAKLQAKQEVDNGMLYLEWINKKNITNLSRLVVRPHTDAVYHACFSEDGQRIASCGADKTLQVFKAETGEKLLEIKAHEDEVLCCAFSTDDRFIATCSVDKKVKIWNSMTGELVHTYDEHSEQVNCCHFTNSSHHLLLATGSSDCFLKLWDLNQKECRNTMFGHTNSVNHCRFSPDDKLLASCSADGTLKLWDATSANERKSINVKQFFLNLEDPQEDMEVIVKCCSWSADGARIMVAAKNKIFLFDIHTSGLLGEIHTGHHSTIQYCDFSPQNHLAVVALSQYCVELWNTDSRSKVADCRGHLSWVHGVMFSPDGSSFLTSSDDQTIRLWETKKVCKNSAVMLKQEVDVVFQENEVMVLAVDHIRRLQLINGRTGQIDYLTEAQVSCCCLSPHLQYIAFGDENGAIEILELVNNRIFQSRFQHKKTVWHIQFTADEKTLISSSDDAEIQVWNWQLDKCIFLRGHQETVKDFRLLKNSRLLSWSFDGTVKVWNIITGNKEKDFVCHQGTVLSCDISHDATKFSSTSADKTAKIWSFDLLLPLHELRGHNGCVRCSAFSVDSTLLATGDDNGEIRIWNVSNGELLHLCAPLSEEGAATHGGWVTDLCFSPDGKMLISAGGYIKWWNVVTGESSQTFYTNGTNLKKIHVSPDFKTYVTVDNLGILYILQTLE

[19] = biological target: Ras and Rab interactor 1/Tyrosine-protein kinase ABL1 (Homo sapiens, UniProt P00519+Q13671); type: functional;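 note: biochemical TR-FRET dose-response test measuring inhibition of binding between Rin1 and Abl proteins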
Sequence of Ras and Rab interactor 1/Tyrosine-protein kinase ABL1 (P00519 whole entry): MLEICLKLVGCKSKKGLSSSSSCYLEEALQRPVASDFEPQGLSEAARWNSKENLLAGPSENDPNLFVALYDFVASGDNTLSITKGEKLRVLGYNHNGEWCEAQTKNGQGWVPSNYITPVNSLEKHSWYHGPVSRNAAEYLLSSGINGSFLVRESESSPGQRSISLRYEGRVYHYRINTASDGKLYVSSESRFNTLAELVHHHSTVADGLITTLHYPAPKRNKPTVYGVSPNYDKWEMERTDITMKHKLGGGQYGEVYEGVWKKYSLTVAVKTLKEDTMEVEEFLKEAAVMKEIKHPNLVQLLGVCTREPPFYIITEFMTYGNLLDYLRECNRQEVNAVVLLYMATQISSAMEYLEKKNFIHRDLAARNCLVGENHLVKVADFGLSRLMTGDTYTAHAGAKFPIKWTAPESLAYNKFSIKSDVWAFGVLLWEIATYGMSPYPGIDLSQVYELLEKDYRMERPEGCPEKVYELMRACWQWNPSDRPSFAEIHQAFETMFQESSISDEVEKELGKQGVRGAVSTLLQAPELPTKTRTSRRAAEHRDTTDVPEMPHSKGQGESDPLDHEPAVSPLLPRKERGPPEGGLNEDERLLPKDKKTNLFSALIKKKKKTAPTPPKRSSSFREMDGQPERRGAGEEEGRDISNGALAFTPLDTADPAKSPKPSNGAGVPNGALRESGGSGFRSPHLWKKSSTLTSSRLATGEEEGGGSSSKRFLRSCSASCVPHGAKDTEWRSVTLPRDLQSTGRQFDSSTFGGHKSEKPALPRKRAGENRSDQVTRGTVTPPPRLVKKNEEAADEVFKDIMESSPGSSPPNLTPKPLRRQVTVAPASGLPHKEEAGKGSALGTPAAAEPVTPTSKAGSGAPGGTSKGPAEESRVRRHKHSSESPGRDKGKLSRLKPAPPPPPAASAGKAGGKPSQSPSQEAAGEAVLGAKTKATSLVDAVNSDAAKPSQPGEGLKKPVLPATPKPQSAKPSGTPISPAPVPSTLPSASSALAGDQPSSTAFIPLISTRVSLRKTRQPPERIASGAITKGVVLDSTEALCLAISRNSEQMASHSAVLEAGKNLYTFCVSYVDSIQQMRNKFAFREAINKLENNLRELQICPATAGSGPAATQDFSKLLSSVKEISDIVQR
Sequence of Ras and Rab interactor 1/Tyrosine-protein kinase ABL1 (Q13671 whole entry): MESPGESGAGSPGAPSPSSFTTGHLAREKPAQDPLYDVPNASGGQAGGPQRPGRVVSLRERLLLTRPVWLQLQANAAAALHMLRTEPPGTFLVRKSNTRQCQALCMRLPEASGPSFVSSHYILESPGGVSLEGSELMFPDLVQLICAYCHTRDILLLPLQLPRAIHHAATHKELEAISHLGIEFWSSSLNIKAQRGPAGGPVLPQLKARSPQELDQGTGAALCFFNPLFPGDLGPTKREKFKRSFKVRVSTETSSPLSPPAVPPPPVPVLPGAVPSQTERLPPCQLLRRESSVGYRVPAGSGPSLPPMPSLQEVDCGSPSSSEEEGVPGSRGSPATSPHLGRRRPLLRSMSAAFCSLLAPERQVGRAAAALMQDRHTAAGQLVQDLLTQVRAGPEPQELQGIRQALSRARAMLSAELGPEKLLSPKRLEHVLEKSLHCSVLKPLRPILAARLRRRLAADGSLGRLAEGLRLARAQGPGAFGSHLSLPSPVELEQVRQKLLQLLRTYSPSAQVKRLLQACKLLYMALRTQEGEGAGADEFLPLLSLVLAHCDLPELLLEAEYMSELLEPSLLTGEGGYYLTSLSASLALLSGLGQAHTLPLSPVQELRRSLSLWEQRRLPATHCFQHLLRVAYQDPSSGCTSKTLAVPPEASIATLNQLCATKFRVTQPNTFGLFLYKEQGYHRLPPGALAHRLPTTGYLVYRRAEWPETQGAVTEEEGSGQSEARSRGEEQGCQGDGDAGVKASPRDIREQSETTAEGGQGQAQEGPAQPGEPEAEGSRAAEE

[20] = AlphaScreen signal interference compounds, dose response, artefact control for ARNT-TACC3 interaction inhibitor project, biochemical, luminescence, cherry-pick (AID 651705); type: functional;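 note: AlphaScreen bead proximity signal that flags compounds interfering with the detection technology; potency reflects signal decrease which marks the compound as an assay artifact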

SMILES: Cc1ccc(NC2CCCN(C(=O)c3cn(C)c4ccccc34)C2)cc1C (configuration not stated)
IC50 [1]: 0.771 µM (active)
IC50 (CHO-K1): > 66.2 µM (inactive)
IC50 [2]: > 49.7 µM (inactive)
IC50 (Orexin receptor type 2 [3]): 7.1 µM (active)
IC50 (Orexin receptor type 2 [4]): 1.64 µM (active)
IC50 [5]: 8.18 µM (active)

SMILES: Cc1ccc(C=Nn2c(-c3ccco3)n[nH]c2=S)s1
IC50 [6]: 85.5 µM (inactive)
IC50 [7]: 3.67 µM (active)
IC50 [8]: 2.09 µM (active)
IC50 [9]: > 99 µM (inactive)

SMILES: CCN(CC)c1ccc(NC(=O)Cn2c(C(C)NC(=O)c3ccccc3)nc3ccccc32)cc1 (configuration not stated)
IC50 [1]: 0.106 µM (active)
IC50 [10]: > 50 µM (inactive)
IC50 (CHO-K1): > 66.2 µM (inactive)
IC50 [2]: > 49.7 µM (inactive)
IC50 (Orexin receptor type 2 [3]): > 88.8 µM (inactive)
IC50 (Orexin receptor type 2 [4]): > 50 µM (inactive)
IC50 [5]: 0.382 µM (active)
EC50 [11]: > 100 µM (not active)

SMILES: Oc1ccc(C2Nc3cccc4cccc(c34)N2)cc1
IC50 (HEK293 [12]): > 89.2 µM (inactive)
EC50 (HEK293 [13]): 20.4 µM (inactive)
CC50 [14]: 21.8 µM (active)
EC50 (Insulin-degrading enzyme [15]): 6.73 µM (active)
EC50 (Insulin-degrading enzyme [16]): 11.1 µM (inactive)

IC50 [17]: 140 µM (inactive)
SMILES: O=C(NCc1cccnc1)c1ccc(=O)oc1

EC50 [18]: > 100 µM (inactive)
SMILES: COC(=O)c1coc(-c2cc3ccccc3s2)n1

IC50 [19]: 16.9 µM (inactive)
SMILES: OC[C@@H]1CN(Cc2ccc(-c3ccccc3)cc2)C[C@H](n2cnc3c(NC4CC4)ncnc32)O1

SMILES: C[C@@H]1CN([C@@H](C)CO)C(=O)c2cc(NC(=O)CCCN(C)C)ccc2O[C@@H](C)CCCCO[C@H]1CN(C)C(=O)Nc1cccc2ccccc12
AC50 [20]: 74.8 µM (active)
